This is an account of results in patent US20260001888A1, “PYRAZOLOPYRIMIDINE PDE9 INHIBITORS” (Merck Sharp & Dohme LLC, priority 2018, published 2026).

Structures are written as SMILES.

Sequence of Human PDE9 (PDE9A2) (O76083 other isoform, or with tags, fused parts or gaps): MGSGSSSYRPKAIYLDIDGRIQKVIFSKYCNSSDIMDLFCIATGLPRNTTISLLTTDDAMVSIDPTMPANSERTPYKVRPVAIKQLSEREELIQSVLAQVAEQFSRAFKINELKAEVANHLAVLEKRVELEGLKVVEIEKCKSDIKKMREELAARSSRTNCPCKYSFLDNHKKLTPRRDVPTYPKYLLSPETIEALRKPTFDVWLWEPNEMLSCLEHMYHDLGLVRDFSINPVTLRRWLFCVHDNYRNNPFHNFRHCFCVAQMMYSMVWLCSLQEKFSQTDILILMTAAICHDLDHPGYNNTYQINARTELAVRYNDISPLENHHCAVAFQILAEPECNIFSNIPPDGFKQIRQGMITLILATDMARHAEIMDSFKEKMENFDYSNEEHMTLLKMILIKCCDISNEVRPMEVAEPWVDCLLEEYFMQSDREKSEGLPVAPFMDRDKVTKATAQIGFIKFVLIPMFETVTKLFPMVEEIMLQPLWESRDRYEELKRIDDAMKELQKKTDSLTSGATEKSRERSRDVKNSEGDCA

The target of the experiment is Human PDE9 (PDE9A2) (Homo sapiens (Human), UniProt O76083). The experiment in a line: PDE9 IMAP fluorescence polarization (FP) inhibition assay. In kind it is biochemical. To be noted: apparent inhibition constant; human PDE9A2, FAM-cGMP substrate 50 nM, room temperature. In outline:
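N-terminal GST-tagged full-length PDE9A2 membrane prep (0.5 ng/ml final) preincubated 30 min with compound at room temperature, then 50 nM FAM-cGMP added for 60 min; IMAP binding reagent stops reaction, FP read after 1 h. Controls: known PDE9 inhibitor (100%), 1% DMSO (0%). KI from four-parameter fit.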
With `CC(c1ccc(C(F)(F)F)nc1)n1nc(C#N)c2c(=O)[nH]c(N3CCC3c3ccc(F)cc3)nc21` (single isomer, unassigned) [Example 57, 6-[2-(4-fluorophenyl)azetidin-1-yl]-4-oxo-1-[1-[6-(trifluoromethyl)-3-pyridyl]ethyl]-5H-pyrazolo[3,4-d]pyrimidine-3-carbonitrile], the Ki was 1.05 nM.
The value for `CC(c1ccc(C(F)(F)F)nc1)n1nc(C#N)c2c(=O)[nH]c(N3CCC3c3ccc(F)cc3)nc21` (single isomer, unassigned) [Example 58, 6-[2-(4-fluorophenyl)azetidin-1-yl]-4-oxo-1-[1-[6-(trifluoromethyl)-3-pyridyl]ethyl]-5H-pyrazolo[3,4-d]pyrimidine-3-carbonitrile] was 7.8 nM.
With `CCC(c1ncc(F)cn1)N(C)c1nc2c(c(C#N)nn2C(C)c2ccc(C3CC3)nc2)c(=O)[nH]1` (single isomer, unassigned) [Example 63, 1-[1-(6-cyclopropyl-3-pyridyl)ethyl]-6-[1-(5-fluoropyrimidin-2-yl)propyl-methyl-amino]-4-oxo-5H-pyrazolo[3,4-d]pyrimidine-3-carbonitrile] the figure was 14.7 nM; with `CCC(c1ncc(F)cn1)N(C)c1nc2c(c(C#N)nn2C(C)c2ccc(C3CC3)nc2)c(=O)[nH]1` (single isomer, unassigned) [Example 64, 1-[1-(6-cyclopropyl-3-pyridyl)ethyl]-6-[1-(5-fluoropyrimidin-2-yl)propyl-methyl-amino]-4-oxo-5H-pyrazolo[3,4-d]pyrimidine-3-carbonitrile], 11.9 nM; with `CCC(c1ncc(F)cn1)N(C)c1nc2c(c(C#N)nn2C(C)c2ccc(C3CC3)nc2)c(=O)[nH]1` (single isomer, unassigned) [Example 65, 1-[1-(6-cyclopropyl-3-pyridyl)ethyl]-6-[1-(5-fluoropyrimidin-2-yl)propyl-methyl-amino]-4-oxo-5H-pyrazolo[3,4-d]pyrimidine-3-carbonitrile], 0.03 nM.
The value for `CCC(c1ncc(F)cn1)N(C)c1nc2c(c(C#N)nn2C(C)c2ccc(C3CC3)nc2)c(=O)[nH]1` (single isomer, unassigned) [Example 66, 1-[1-(6-cyclopropyl-3-pyridyl)ethyl]-6-[1-(5-fluoropyrimidin-2-yl)propyl-methyl-amino]-4-oxo-5H-pyrazolo[3,4-d]pyrimidine-3-carbonitrile] was 0.6 nM.
With `CCC(c1ncc(F)cn1)N(C)c1nc2c(c(C#N)nn2C(C)c2ccc(C3CC3)cc2)c(=O)[nH]1` (single isomer, unassigned) [Example 67, 1-[1-(4-cyclopropylphenyl)ethyl]-6-[1-(5-fluoropyrimidin-2-yl)propyl-methyl-amino]-4-oxo-5H-pyrazolo[3,4-d]pyrimidine-3-carbonitrile], the Ki was determined as 0.71 nM.
The value for `CCC(c1ncc(F)cn1)N(C)c1nc2c(c(C#N)nn2C(C)c2ccc(C3CC3)cc2)c(=O)[nH]1` (single isomer, unassigned) [Example 68, 1-[1-(4-cyclopropylphenyl)ethyl]-6-[1-(5-fluoropyrimidin-2-yl)propyl-methyl-amino]-4-oxo-5H-pyrazolo[3,4-d]pyrimidine-3-carbonitrile] was 0.73 nM.
`CCC(c1ncc(F)cn1)N(C)c1nc2c(c(C#N)nn2C(C)c2ccc(C3CC3)cc2)c(=O)[nH]1` (single isomer, unassigned) [Example 69, 1-[1-(4-cyclopropylphenyl)ethyl]-6-[1-(5-fluoropyrimidin-2-yl)propyl-methyl-amino]-4-oxo-5H-pyrazolo[3,4-d]pyrimidine-3-carbonitrile]: the Ki worked out at 14.9 nM.
`CCC(c1ncc(F)cn1)N(C)c1nc2c(c(C#N)nn2C(C)c2ccc(C3CC3)cc2)c(=O)[nH]1` (single isomer, unassigned) [Example 70, 1-[1-(4-cyclopropylphenyl)ethyl]-6-[1-(5-fluoropyrimidin-2-yl)propyl-methyl-amino]-4-oxo-5H-pyrazolo[3,4-d]pyrimidine-3-carbonitrile]: the Ki is 0.02 nM.
The value for `CCC(Nc1nc2c(c(C#N)nn2C(C)c2ccc(C(F)(F)F)nc2)c(=O)[nH]1)c1ncccn1` (single isomer, unassigned) [Example 71, 4-Oxo-6-((1-(pyrimidin-2-yl)propyl)amino)-1-(1-(6-(trifluoromethyl)pyridin-3-yl)ethyl)-4,5-dihydro-1H-pyrazolo[3,4-d]pyrimidine-3-carbonitrile] was 11.9 nM; that for `CCC(Nc1nc2c(c(C#N)nn2C(C)c2ccc(C(F)(F)F)nc2)c(=O)[nH]1)c1ncccn1` (single isomer, unassigned) [Example 72, 4-Oxo-6-((1-(pyrimidin-2-yl)propyl)amino)-1-(1-(6-(trifluoromethyl)pyridin-3-yl)ethyl)-4,5-dihydro-1H-pyrazolo[3,4-d]pyrimidine-3-carbonitrile] was 21.9 nM; that for `CCC(Nc1nc2c(c(C#N)nn2C(C)c2ccc(C(F)(F)F)nc2)c(=O)[nH]1)c1ncccn1` (single isomer, unassigned) [Example 73, 4-Oxo-6-((1-(pyrimidin-2-yl)propyl)amino)-1-(1-(6-(trifluoromethyl)pyridin-3-yl)ethyl)-4,5-dihydro-1H-pyrazolo[3,4-d]pyrimidine-3-carbonitrile] was 0.25 nM.
In the case of `CCC(Nc1nc2c(c(C#N)nn2C(C)c2ccc(C(F)(F)F)nc2)c(=O)[nH]1)c1ncccn1` (single isomer, unassigned) [Example 74, 4-Oxo-6-((1-(pyrimidin-2-yl)propyl)amino)-1-(1-(6-(trifluoromethyl)pyridin-3-yl)ethyl)-4,5-dihydro-1H-pyrazolo[3,4-d]pyrimidine-3-carbonitrile], the Ki was found to be 11.4 nM.
The value for `CCC(c1ncc(F)cn1)N(C)c1nc2c(c(C#N)nn2C(C)c2ccc(C(F)(F)F)nc2)c(=O)[nH]1` (single isomer, unassigned) [Example 75, 6-((1-(5-fluoropyrimidin-2-yl)propyl)(methyl)amino)-4-oxo-1-(1-(6-(trifluoromethyl)pyridin-3-yl)ethyl)-4,5-dihydro-1H-pyrazolo[3,4-d]pyrimidine-3-carbonitrile] was 3.31 nM.
Regarding `CCC(c1ncc(F)cn1)N(C)c1nc2c(c(C#N)nn2C(C)c2ccc(C(F)(F)F)nc2)c(=O)[nH]1` (single isomer, unassigned) [Example 76, 6-((1-(5-fluoropyrimidin-2-yl)propyl)(methyl)amino)-4-oxo-1-(1-(6-(trifluoromethyl)pyridin-3-yl)ethyl)-4,5-dihydro-1H-pyrazolo[3,4-d]pyrimidine-3-carbonitrile], the Ki came to 55.1 nM.
As to `CCC(c1ncc(F)cn1)N(C)c1nc2c(c(C#N)nn2C(C)c2ccc(C(F)(F)F)nc2)c(=O)[nH]1` (single isomer, unassigned) [Example 77, 6-((1-(5-fluoropyrimidin-2-yl)propyl)(methyl)amino)-4-oxo-1-(1-(6-(trifluoromethyl)pyridin-3-yl)ethyl)-4,5-dihydro-1H-pyrazolo[3,4-d]pyrimidine-3-carbonitrile], the Ki was determined as 0.27 nM.
With `CCC(c1ncc(F)cn1)N(C)c1nc2c(c(C#N)nn2C(C)c2ccc(C(F)(F)F)nc2)c(=O)[nH]1` (single isomer, unassigned) [Example 78, 6-((1-(5-fluoropyrimidin-2-yl)propyl)(methyl)amino)-4-oxo-1-(1-(6-(trifluoromethyl)pyridin-3-yl)ethyl)-4,5-dihydro-1H-pyrazolo[3,4-d]pyrimidine-3-carbonitrile] the figure was 34.2 nM; with `CC(c1ccc(C(F)(F)F)nc1)n1nc(C#N)c2c(=O)[nH]c(CCc3ncccn3)nc21` (single isomer, unassigned) [Example 79, 4-oxo-6-(2-(pyrimidin-2-yl)ethyl)-1-(1-(6-(trifluoromethyl)pyridin-3-yl)ethyl)-4,5-dihydro-1H-pyrazolo[3,4-d]pyrimidine-3-carbonitrile], 3.96 nM.
The value for `CC(c1ccc(C(F)(F)F)nc1)n1nc(C#N)c2c(=O)[nH]c(CCc3ncccn3)nc21` (single isomer, unassigned) [Example 80, 4-oxo-6-(2-(pyrimidin-2-yl)ethyl)-1-(1-(6-(trifluoromethyl)pyridin-3-yl)ethyl)-4,5-dihydro-1H-pyrazolo[3,4-d]pyrimidine-3-carbonitrile] was 120 nM.
As to `CC(c1ccc(C(F)(F)F)nc1)n1nc(C#N)c2c(=O)[nH]c(CCc3ncc(C4CC4)cn3)nc21` (single isomer, unassigned) [Example 81, 6-(2-(5-cyclopropylpyrimidin-2-yl)ethyl)-4-oxo-1-(1-(6-(trifluoromethyl)pyridin-3-yl)ethyl)-4,5-dihydro-1H-pyrazolo[3,4-d]pyrimidine-3-carbonitrile], the Ki came to 0.5 nM.
As to `CC(c1ccc(C(F)(F)F)nc1)n1nc(C#N)c2c(=O)[nH]c(CCc3ncc(C4CC4)cn3)nc21` (single isomer, unassigned) [Example 82, 6-(2-(5-cyclopropylpyrimidin-2-yl)ethyl)-4-oxo-1-(1-(6-(trifluoromethyl)pyridin-3-yl)ethyl)-4,5-dihydro-1H-pyrazolo[3,4-d]pyrimidine-3-carbonitrile], the Ki is 16.2 nM.
The value for `CC(Cc1nc2c(c(C#N)nn2C(C)c2ccc(C(F)(F)F)nc2)c(=O)[nH]1)c1ncccn1` (single isomer, unassigned) [Example 83, 4-oxo-6-(2-(pyrimidin-2-yl)propyl)-1-(1-(6-(trifluoromethyl)pyridin-3-yl)ethyl)-4,5-dihydro-1H-pyrazolo[3,4-d]pyrimidine-3-carbonitrile] was 60.7 nM; that for `CC(Cc1nc2c(c(C#N)nn2C(C)c2ccc(C(F)(F)F)nc2)c(=O)[nH]1)c1ncccn1` (single isomer, unassigned) [Example 84, 4-oxo-6-(2-(pyrimidin-2-yl)propyl)-1-(1-(6-(trifluoromethyl)pyridin-3-yl)ethyl)-4,5-dihydro-1H-pyrazolo[3,4-d]pyrimidine-3-carbonitrile] was 111 nM.
